Experimental data published in US20090036492A1, “Novel Cercosporamide Derivative” (priority 2005, published 2009).

Tested on: male KK mice
Assay: Blood glucose lowering effect in diabetic KK mice
Format: in vivo
Details: Mus musculus, po, 72 h, 15 to 20 weeks old, feed containing 0.03% of the compound, three days, blood glucose on the 3rd day vs control group, read-out: Blood glucose lowering efficacy (%)
Description: Six-week-old male KK mice were purchased from CLEA Japan, Inc. and then were fed until 15 to 20 weeks old and affected with diabetes. The mice were individually fed during the adaptation period and the test period, and water and feed (FR2, Funabashi Farm) were freely ingested.
At the start of the experiment, after body weight measurement, blood was collected from the tail vein of the mice into a heparin-coated glass tube and centrifuged, and then plasma was separated. The glucose level in the plasma was measured by Glucoloader GXT (A&T Corp.), and individuals having a blood glucose level of about 350 mg/dl or more were selected. Groups each having 3 to 4 mice were used for the experiment, and the mice were grouped to make the average body weight and the average blood glucose level similar. Each compound was administered to a compound administration group by feeding a mixture with feed containing 0.03% of the compound. A separate group in which the mice were fed only with feed was a control group.
The experiment period (drug administration period) was three days. The grouping day was the 0th day. On the 3rd day, body weight was measured and blood was collected from the tail vein to measure the blood glucose level.
The blood glucose lowering efficacy was determined by the following formula.
Blood glucose lowering efficacy=[(Control group blood glucose level−Compound administration group blood glucose level)/Control group blood glucose level]×100

| SMILES | inhibition in vivo at 0.03 % in feed [%] |
| --- | --- |
| COc1cc(O)c2c(c1C(=O)NCc1c(C)cc(F)c3ccccc13)OC1=CC(O)=C(C(C)=O)C(=O)[C@]12C [Example 180, (9aS)-8-Acetyl-N-[(4-fluoro-2-methyl-1-naphthyl)methyl]-1,7-dihydroxy-3-methoxy-9a-methyl-9-oxo-9,9a-dihydrodibenzo[b,d]furan-4-carboxamide] | 60 |
| COc1cc(O)c2c(c1C(=O)NCc1c(C)ccc3ccc(Cl)cc13)OC1=CC(O)=C(C(C)=O)C(=O)[C@]12C [Example 181, (9aS)-8-Acetyl-N-[(7-chloro-2-methyl-1-naphthyl)methyl]-1,7-dihydroxy-3-methoxy-9a-methyl-9-oxo-9,9a-dihydrodibenzo[b,d]furan-4-carboxamide] | 45 |
| COc1cc(O)c2c(c1C(=O)NCc1c(C)ccc3ccc(F)cc13)OC1=CC(O)=C(C(C)=O)C(=O)[C@]12C [Example 182, (9aS)-8-Acetyl-N-[(7-fluoro-2-methyl-1-naphthyl)methyl]-1,7-dihydroxy-3-methoxy-9a-methyl-9-oxo-9,9a-dihydrodibenzo[b,d]furan-4-carboxamide] | 50 |
| COc1cc(O)c2c(c1C(=O)NCc1c(C)ccc3c(F)cccc13)OC1=CC(O)=C(C(C)=O)C(=O)[C@]12C [Example 183, (9aS)-8-Acetyl-N-[(5-fluoro-2-methyl-1-naphthyl)methyl]-1,7-dihydroxy-3-methoxy-9a-methyl-9-oxo-9,9a-dihydrodibenzo[b,d]furan-4-carboxamide] | 38 |
| CCc1ccc2ccc(F)cc2c1CNC(=O)c1c(OC)cc(O)c2c1OC1=CC(O)=C(C(C)=O)C(=O)[C@]12C [Example 184, (9aS)-8-Acetyl-N-[(2-ethyl-7-fluoro-1-naphthyl)methyl]-1,7-dihydroxy-3-methoxy-9a-methyl-9-oxo-9,9a-dihydrodibenzo[b,d]furan-4-carboxamide] | 37 |
| CCc1ccc2c(F)cc(F)cc2c1CNC(=O)c1c(OC)cc(O)c2c1OC1=CC(O)=C(C(C)=O)C(=O)[C@]12C [Example 185, (9aS)-8-Acetyl-N-[(2-ethyl-5,7-difluoro-1-naphthyl)methyl]-1,7-dihydroxy-3-methoxy-9a-methyl-9-oxo-9,9a-dihydrodibenzo[b,d]furan-4-carboxamide] | 27 |
| CCc1ccc2ccc(Cl)cc2c1CNC(=O)c1c(OC)cc(O)c2c1OC1=CC(O)=C(C(C)=O)C(=O)[C@]12C [Example 186, (9aS)-8-Acetyl-N-[(7-chloro-2-ethyl-1-naphthyl)methyl]-1,7-dihydroxy-3-methoxy-9a-methyl-9-oxo-9,9a-dihydrodibenzo[b,d]furan-4-carboxamide] | 53 |
| CCc1cc(F)c2ccccc2c1CNC(=O)c1c(OC)cc(O)c2c1OC1=CC(O)=C(C(C)=O)C(=O)[C@]12C [Example 187, (9aS)-8-Acetyl-N-[(2-ethyl-4-fluoro-1-naphthyl)methyl]-1,7-dihydroxy-3-methoxy-9a-methyl-9-oxo-9,9a-dihydrodibenzo[b,d]furan-4-carboxamide] | 44 |
| CCc1ccc2cc(F)c(F)cc2c1CNC(=O)c1c(OC)cc(O)c2c1OC1=CC(O)=C(C(C)=O)C(=O)[C@]12C [Example 188, (9aS)-8-Acetyl-N-[(2-ethyl-6,7-difluoro-1-naphthyl)methyl]-1,7-dihydroxy-3-methoxy-9a-methyl-9-oxo-9,9a-dihydrodibenzo[b,d]furan-4-carboxamide] | 57 |
| CCc1cc(F)c2ccc(C)cc2c1CNC(=O)c1c(OC)cc(O)c2c1OC1=CC(O)=C(C(C)=O)C(=O)[C@]12C [Example 189, (9aS)-8-Acetyl-N-[(2-ethyl-4-fluoro-7-methyl-1-naphthyl)methyl]-1,7-dihydroxy-3-methoxy-9a-methyl-9-oxo-9,9a-dihydrodibenzo[b,d]furan-4-carboxamide] | 47 |
| COc1cc(O)c2c(c1C(=O)NCc1c(C)ccc3c(F)c(F)c(F)cc13)OC1=CC(O)=C(C(C)=O)C(=O)[C@]12C [Example 190, (9aS)-8-Acetyl-1,7-dihydroxy-3-methoxy-9a-methyl-9-oxo-N-[(5,6,7-trifluoro-2-methyl-1-naphthyl)methyl]-9,9a-dihydrodibenzo[b,d]furan-4-carboxamide] | 58 |
| CCc1ccc2cccc(F)c2c1CNC(=O)c1c(OC)cc(O)c2c1OC1=CC(O)=C(C(C)=O)C(=O)[C@]12C [Example 192, (9aS)-8-Acetyl-N-[(2-ethyl-8-fluoro-1-naphthyl)methyl]-1,7-dihydroxy-3-methoxy-9a-methyl-9-oxo-9,9a-dihydrodibenzo[b,d]furan-4-carboxamide] | 42 |
| CCc1ccc2ccc(F)c(F)c2c1CNC(=O)c1c(OC)cc(O)c2c1OC1=CC(O)=C(C(C)=O)C(=O)[C@]12C [Example 193, (9aS)-8-Acetyl-N-[(2-ethyl-7,8-difluoro-1-naphthyl)methyl]-1,7-dihydroxy-3-methoxy-9a-methyl-9-oxo-9,9a-dihydrodibenzo[b,d]furan-4-carboxamide] | 50 |
| CCc1ccc2c(F)cc(C)cc2c1CNC(=O)c1c(OC)cc(O)c2c1OC1=CC(O)=C(C(C)=O)C(=O)[C@]12C [Example 195, (9aS)-8-Acetyl-N-[(2-ethyl-5-fluoro-7-methyl-1-naphthyl)methyl]-1,7-dihydroxy-3-methoxy-9a-methyl-9-oxo-9,9a-dihydrodibenzo[b,d]furan-4-carboxamide] | 36 |
